The data set can be described thus: Stability of amino-functionalized denatonium derivatives (LC/MS measurements). The class given is physicochemical. The source says: The decomposition of the substance is illustrated as follows: […]

The values below come from patent US11891352B2, “Aminomethyl-functionalized denatonium derivatives, their preparation and use” (Julius-Maximilians-Universitaet Wuerzburg, priority 2018, dated 2024).

Each structure is given as a SMILES string.

`CC[N+](CC)(CC(=O)Nc1c(C)cccc1C)Cc1ccc(N)cc1` [derivative (1)]: the stability entry was “not stable”.
